In patent US9458460B2, “Pharmaceutical compositions for treating cancer” (National University of Singapore, priority 2011, dated 2016):
Like-named read-outs stand apart in the source and are kept apart here.

Experiments:
Assay type in all cases: cell-based
[1] = system: BMP4; assay: BMP4 expression after 5-azadC treatment
Protocol: (§1) Gastric cancer cell lines were treated with 5-aza-2′-deoxycytidine (5-azadC), a chemical inhibitor of DNA methyltransferases to investigate if BMP4 gene expression is regulated by BMP4 promoter methylation.

[2] = system: SMAD1/5/8; assay: phosphorylation of BMP-downstream targets after 5-azadC treatment
Protocol: as §1

[3] = system: YCC11 cells; assay: cisplatin growth inhibition and caspase-3 activation in BMP4-manipulated cells; conditions: for IC50: read-out: absolute 0150
[4] = system: GC cells; assay: high-content screening of morpho-cellular parameters after cisplatin treatment
Protocol: The reason for cell growth inhibition caused by cisplatin was determined using high-content screening (HCS), a cell-based technology allowing biological responses to be measured at the single-cell level, to quantify levels of caspase-3 activation in GC cells after cisplatin treatment. Five distinct morpho-cellular parameters were quantified for alterations induced by cisplatin—caspase3 activation, nuclear size, nuclear condensation, nuclear morphology and nuclear ellipticity.

[5] = system: AGS cells; assay: cisplatin growth inhibition (GI50) in GC cell lines; conditions: 48 hrs
Protocol: (§2) 20 GC cell lines were treated with increasing concentrations of cisplatin, from 0.1 μM to 1 mM. For each line, the cisplatin GI50, referring to the concentration of cisplatin required to cause 50% growth inhibition at 48 hrs.

[6] = system: YCC11 cells; assay: as above; conditions: 48 hrs
Protocol: as §2

[7] = system: AZ521 cells; assay: cisplatin growth inhibition and caspase-3 activation in BMP4-manipulated cells; conditions: for GI50: read-out: absolute GI50

SMILES | BMP4 transcripts ([1]; cisplatin sensitive lines YCC10 and YCC11 (BMP4 promoter methylated)) | BMP4 expression ([1]; resistant cell lines MKN45 and AZ521 (BMP4 promoter unmethylated)) | phosphorylated SMAD1/5/8 ([2]; cisplatin resistant lines MKN45 and AZ521) | phosphorylation of SMAD1/5/8 ([2]; cisplatin sensitive lines YCC10 and YCC11) | IC50 ([3]; BMP4-overexpressing YCC11 cells (individual clones 1 and 2)) | active Caspase-3 levels ([3]; BMP4-overexpressing YCC11 cells, after cisplatin) | IC50 ([3]; parental YCC11 cells) | caspase-3 activation levels ([4]; cisplatin-sensitive lines compared to cisplatin-resistant lines) | nuclear ellipticity ([4]; top four sensitive lines compared to resistant lines) | GI50 [5] | GI50 [6] | GI50 ([7]; BMP4-silenced AZ521 cells (individual clones 1 and 2)) | caspase-3 activation levels ([7]; BMP4-silenced AZ521 cells compared to control cells, after cisplatin treatment) | GI50 ([7]; parental AZ521 cells)
Nc1ncn([C@H]2C[C@H](O)[C@@H](CO)O2)c(=O)n1 [5-azadC, 5-aza-2′-deoxycytidine] | up-regulated | did not alter | not affected | increased |  |  |  |  |  |  |  |  |  | 
N.N.[Cl][Pt][Cl] [cisplatin, cis-diamminedichloroplatinum (II)] |  |  |  |  | 0.2 to 0.5 µM | reduction | 0.045 µM | Significantly higher | Significant changes | 126 µM | 1.5 µM | 1.1 to 3.24 µM | significantly higher | 15 µM
